From US9453017B2, “Antiviral therapies with phospholipase D inhibitors” (Vanderbilt University, priority 2011, dated 2016) come the findings set out here.

Each structure is given as a SMILES string. Read-outs that look alike come from different tables or passages of the source.

Series [1] deals with RAB5 and CD63 in A549 cells infected with A/California/04/2009. Briefly: Diffuse infection model, RAB5 and CD63 recruitment (FIG. 8c-f). The series is classed as cell-based, human. The procedure: (§1) A549 cells were seeded onto chamber slides and allowed to adhere overnight. The cells were washed with PBS, and serum-free medium containing treatment was added to the cells. After one hour of treatment, the medium was removed and replaced with serum-free medium containing treatment and 0.05 MOI influenza virus. The infected cultures were kept at 4° C. for 15 minutes before being incubated at 37° C. At appropriate times, cultures were removed and fixed with […] and processed for microscopy as above. Z stacks were acquired using a Zeiss LSM 510 microscope, and images were analyzed with ImageJ (Java-based software available from NIH). Data was processed as above.
(§2) Samples were fixed in 4% formaldehyde, permeabilized with 0.3% Triton X-100, and then exposed to antisera targeting proteins of interest and corresponding fluorescent secondary antibodies alongside DAPI to visualize nuclei. Focal infections were imaged and processed using a Nikon C1Si and NIS Elements software. Confocal images were captured with a Zeiss LSM 510 NLO Meta and analyzed with Zeiss Zen 2011 software and ImageJ.
(§3) (i) Quantitation of the area of positive Mx1 staining, n=4 for DMSO and n=5 for drug treatments. ANOVA and Dunnett's post test were used to determine significance of changes when PLD inhibitors were used, and a t-test was used when cells were treated with alcohol, * p<0.05, ** p<0.01, ***, p<0.001, **** p<0.0001. Data in (b, d, f, i) is mean±SEM, n=3 fields of at least 15 cells.

In series [2] the test system is A/Brisbane/59/2007 (H1N1). The series is classed as cell-based, influenza virus. Conditions: for infected cells, A/Brisbane/59/2007: 10 μM, vs DMSO vehicle.
The test system of series [3] is A549 cells infected with A/Puerto Rico/8/1934. The series can be described thus: Viral nucleoprotein (NP) / Rab11 trafficking (FIG. 8g). The series is classed as cell-based, human. The conditions noted are these: 5 μM; A/Puerto Rico/8/1934, MOI=5; 16 hr infection.
Text: as §2, §3

The test system of series [4] is PR8 influenza A virus. Briefly: In vivo mouse model of influenza infection, 30 mg/kg (FIGS. 3, 4). The conditions noted are these: 30 mg/kg intraperitoneal twice daily for 7 days; for survival of infected mice: FIG. 4. The procedure: A mouse model of influenza infection was used to test the in vivo efficacy of representative disclosed compounds. Compounds were administered at 30 mg/kg and the mice were infected with PR8 influenza A virus. Briefly, C57BL/6J mice (female 8- to 10-wk-old; purchased from The Jackson Laboratory and held under pathogen-free conditions at St. Jude Children's Research Hospital) were used in these studies. Mice were anesthetized by i.p. injection with Avertin (2,2,2-tribromethanol; prepared in-house) before intranasal (i.n.) infection with 80% infective dose (EID80) units of the PR8 influenza A virus in PBS. Mice were administered either the indicated PLD inhibitor (30 mg/kg) or vehicle intraperitoneal starting at 24 hr per exposure. Compounds were administered twice daily for 7 days and subjects were measured for changes in body weight (FIG. 3) or survival (FIG. 4) as a function of PLD inhibitor administration. Mice were sacrificed if moribund.

Series [5] concerns influenza virus. It is filed as cell-based. Conditions: 10 μM compound; compared to vehicle; FIG. 2.
For series [6], the system named is clathrin in A549 cells infected with A/Brisbane/59/07. The series can be described thus: Diffuse infection model, clathrin accumulation (FIG. 8a-b). It is filed as cell-based, human. The procedure: as §1, §2, §3
In series [7] the test system is A/Puerto Rico/8/1934. Briefly: Traditional plaque assay in MDCK cells (FIG. 14a). The conditions noted are these: 10 μM, vs DMSO treated control.
The test system of series [8] is influenza virus strains. The series is classed as cell-based.
In series [9] the test system is A/California/04/2009 (H1N1). The series is classed as cell-based, influenza virus.
The subject of series [10] is phospholipase D (PLD). The series is classed as cell-based, human. Conditions: 10 μM; A549 cells infected with California/04/2009 at 1 MOI; 6 hours post-infection; FIG. 6.
Series [11] is described as follows: Pharmacokinetics after intraperitoneal injection in mice (FIG. 15). The series is classed as in vivo. The conditions noted are these: mouse. On the procedure: The pharmacokinetic behavior of a representative disclosed PLD inhibitor of the present invention was assessed following intraperitoneal administration in a mouse model. Briefly, mice were administered a single dose of the PLD inhibitor VU0364739 (10 mg/kg) by intraperitoneal injection. Tissue (brain, lung, and liver) and plasma samples were isolated following euthanizing animals (N=2 for each time point) at the indicated time points (see FIG. 15). The samples were flash frozen and stored at −80° C. Analysis was carried out by LC-MS/MS following extraction.

Series [12] has as its system PR8 (A/Puerto Rico/8/1934). Briefly: Lethal influenza infection in mice, JWJ 13 mg/kg (FIG. 9). It is filed as in vivo, mouse.
[13] abbreviates: 10 μM PLD inhibitor, vs DMSO control.
Where [14] appears, read: 50 minutes post-infection, 0.05 MOI, vs DMSO.
[15] abbreviates: 80 minutes post-infection, 0.05 MOI, vs DMSO.

In the case of `C[C@@H](CN1CCC(n2c(=O)[nH]c3cc(Br)ccc32)CC1)NC(=O)[C@@H]1C[C@@H]1c1ccccc1` [No. 2, (1R,2S)-N-((S)-1-(4-(5-bromo-2-oxo-2,3-dihydro-1H-benzo[d]imidazol-1-yl)piperidin-1-yl)propan-2-yl)-2-phenylcyclopropanecarboxamide], the CD63 accumulation result in [1] (setting [13]) is given as “significantly less CD63”. In addition, in [2], the “protection from A/Brisbane/59/2007 infection” value is listed as “still significantly protected” and the “infected cells, A/Brisbane/59/2007” value is recorded as “significantly fewer (p<0.001) infected cells”. The “viral nucleoprotein (NP) trafficking” value in [3] is given as “trafficking was disrupted”. Besides, the “survival of infected mice” value in [4] is on record as “particularly profound”. Besides, the “weight loss associated with virus infection” value in [4] (vs vehicle (10% Tween 80), through about day 11 post-infection, FIG. 3) is recorded as “trend of the test compound to protect infected mice against weight loss”. The “infection of A549 cells” value in [5] is “blocked infection of A549 cells”. Besides, the clathrin accumulation result in series [6] (setting [14]) was “accumulated less clathrin”. Moreover, in series [6] (setting [15]), the clathrin accumulation result is given as “persisted at least until 80 minutes”. In [7], the plaque formation entry is reported as “less plaque formation”.
As for `CC(C)(C)O` [tert-butanol], in series [8], the “virus infection of A549 cells” value is given as “does not have any effect on virus infection of A549 cells”.
Regarding `O=C(NCCN1CCC2(CC1)C(=O)NCN2c1cccc(F)c1)c1ccc2ccccc2c1` [No. 1, N-(2-(1-(3-fluorophenyl)-4-oxo-1,3,8-triazaspiro[4.5]decan-8-yl)ethyl)-2-naphthamide], in series [1] (setting [13]), the CD63 accumulation result was “significantly less CD63”. In addition, in [2], the “protection from A/Brisbane/59/2007 infection” value is given as “still significantly protected”. Further, the “infected cells, A/Brisbane/59/2007” value in series [2] is “significantly fewer (p<0.001) infected cells”. In [3], the “viral nucleoprotein (NP) trafficking” value is “trafficking was disrupted”. In addition, the “survival of infected mice” value in [4] is given as “survival improved”. The “infection of A549 cells” value in series [5] was “blocked infection of A549 cells”. The values for the clathrin accumulation entry in [6] (setting [14]) and in series [6] (setting [15]) were “accumulated less clathrin” and “persisted at least until 80 minutes”, respectively. In addition, the “protection from A/California/04/2009 infection” value in series [9] was “protected (p<0.05)”; in series [9] (10 μM, […], vs vehicle control), “significant protection”. Further, in series [10], the “formation of PtdBuOH” value is on record as “inhibited”. Further, the plaque formation result in series [7] is given as “less plaque formation”. Besides, in [11] (in vivo, ip, 10 mg/kg), the “accumulation in liver and lung” value is “elevated accumulation in liver and lung compared to plasma”. Also, the accumulation in brain result in series [11] (single dose 10 mg/kg intraperitoneal, 15 min to 3 hr post-administration) is “appeared to be constant”. In addition, the “exposure in tissues (brain, lung, liver) and plasma” value in series [11] (single dose 10 mg/kg intraperitoneal, FIG. 15) is “sustained exposure in the tissues examined and in plasma over a period of at least three hours”. In addition, the “less likely to die” value in series [12] (13 mg/kg intraperitoneal, 4000 EID50 PR8, Log-Rank p=0.0061, FIG. 9b) is reported as “about 27%”. Further, the “mice that survived (of cohort)” value in series [12] (13 mg/kg intraperitoneal, 4000 EID50 PR8, vehicle one out of 42) is 12/38. For the same molecule, the “recovery of weight lost” value in series [12] (13 mg/kg intraperitoneal, 4000 EID50 PR8, vs vehicle) is given as “recovered the weight lost more quickly”. Besides, in [12] (13 mg/kg intraperitoneal, 4000 EID50 PR8, vs vehicle, FIG. 9a), the weight loss entry is “lost significantly less weight”. The “virus in lungs (plaque assay)” value in [12] (8 hours after infection, p=0.0017, FIG. 9c) is “significantly less virus”. In addition, the innate immune response entry in series [12] (8 hours after infection, vs vehicle) is “more activated innate immune response”.
On to `CCCCO` [n-butanol, reference compound], for which the CD63 accumulation entry in series [1] (0.6% alcohol, vs respective control (tert-butanol)) is given as “significantly less CD63”. For the same molecule, the “protection from productive infection, A/Brisbane/59/2007” value in series [2] is recorded as “significantly protected from a productive infection”. The “virus infection of A549 cells” value in series [8] was “has a significant effect on virus infection of A549 cells”. Besides, the clathrin accumulation result in series [6] (0.6% alcohol, 80 minutes after infection, compared to tert-butanol) is “significantly less clathrin had accumulated”. Also, in series [9], the “protection from productive infection, A/California/04/2009” value is “significantly protected from a productive infection”.
`O=C(NCCN1CCC(n2c(=O)[nH]c3ccccc32)CC1)c1ccc2ccccc2c1` [No. 3, N-(2-(4-(2-oxo-2,3-dihydro-1H-benzo[d]imidazol-1-yl)piperidin-1-yl)ethyl)-2-naphthamide]: the CD63 accumulation entry in series [1] (setting [13]) is reported as “significantly less CD63”. Further, in series [2], the “protection from A/Brisbane/59/2007 infection” value is recorded as “still significantly protected” and the “infected cells, A/Brisbane/59/2007” value is “significantly fewer (p<0.001) infected cells”. In addition, the “infection of A549 cells” value in [5] is listed as “blocked infection of A549 cells”. The clathrin accumulation result in series [6] (setting [14]) is listed as “accumulated less clathrin”. In [9] (10 μM, […], vs vehicle control), the “protection from A/California/04/2009 infection” value is on record as “significant protection”.
